pIC50: −log10 of the molar value.
Columns and labels:
[1] = molecular target: T1, Mineralocorticoid receptor (Homo sapiens, UniProt P08235); type: functional, cell-based, Huh-7;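 also: antagonism at Gal4-fused mineralocorticoid receptor in human Huh7 cells, measured by luciferase reporter gene read-out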
T1 sequence (P08235 whole entry): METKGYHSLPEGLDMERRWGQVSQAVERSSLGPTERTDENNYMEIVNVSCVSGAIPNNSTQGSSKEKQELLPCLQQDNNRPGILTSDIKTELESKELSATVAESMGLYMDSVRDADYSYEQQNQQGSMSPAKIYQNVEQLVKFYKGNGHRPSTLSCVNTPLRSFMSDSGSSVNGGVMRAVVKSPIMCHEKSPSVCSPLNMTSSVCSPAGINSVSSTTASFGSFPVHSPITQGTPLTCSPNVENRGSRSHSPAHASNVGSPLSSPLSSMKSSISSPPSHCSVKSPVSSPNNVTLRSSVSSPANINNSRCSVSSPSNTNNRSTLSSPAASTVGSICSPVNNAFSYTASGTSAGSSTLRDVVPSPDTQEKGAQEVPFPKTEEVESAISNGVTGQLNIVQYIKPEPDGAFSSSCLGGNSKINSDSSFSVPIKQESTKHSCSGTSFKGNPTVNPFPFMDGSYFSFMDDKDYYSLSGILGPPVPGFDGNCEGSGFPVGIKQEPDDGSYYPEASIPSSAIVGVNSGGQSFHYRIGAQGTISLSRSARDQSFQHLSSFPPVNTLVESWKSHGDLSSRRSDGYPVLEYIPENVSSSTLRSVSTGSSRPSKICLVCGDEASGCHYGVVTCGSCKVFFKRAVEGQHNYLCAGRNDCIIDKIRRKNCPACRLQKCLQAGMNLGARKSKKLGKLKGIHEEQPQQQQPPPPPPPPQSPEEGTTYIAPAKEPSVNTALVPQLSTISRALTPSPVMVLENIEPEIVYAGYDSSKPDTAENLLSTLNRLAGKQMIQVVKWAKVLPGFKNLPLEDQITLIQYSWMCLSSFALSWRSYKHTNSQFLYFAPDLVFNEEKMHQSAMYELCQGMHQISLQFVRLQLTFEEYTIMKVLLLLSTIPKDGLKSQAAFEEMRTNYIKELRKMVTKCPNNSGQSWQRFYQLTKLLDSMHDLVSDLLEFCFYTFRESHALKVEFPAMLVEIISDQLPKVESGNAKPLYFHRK

Estrogen receptor = molecular target: T2, Estrogen receptor (Homo sapiens, UniProt P03372); assay: Antagonist activity at estrogen receptor; type: functional
T2 sequence (P03372 whole entry): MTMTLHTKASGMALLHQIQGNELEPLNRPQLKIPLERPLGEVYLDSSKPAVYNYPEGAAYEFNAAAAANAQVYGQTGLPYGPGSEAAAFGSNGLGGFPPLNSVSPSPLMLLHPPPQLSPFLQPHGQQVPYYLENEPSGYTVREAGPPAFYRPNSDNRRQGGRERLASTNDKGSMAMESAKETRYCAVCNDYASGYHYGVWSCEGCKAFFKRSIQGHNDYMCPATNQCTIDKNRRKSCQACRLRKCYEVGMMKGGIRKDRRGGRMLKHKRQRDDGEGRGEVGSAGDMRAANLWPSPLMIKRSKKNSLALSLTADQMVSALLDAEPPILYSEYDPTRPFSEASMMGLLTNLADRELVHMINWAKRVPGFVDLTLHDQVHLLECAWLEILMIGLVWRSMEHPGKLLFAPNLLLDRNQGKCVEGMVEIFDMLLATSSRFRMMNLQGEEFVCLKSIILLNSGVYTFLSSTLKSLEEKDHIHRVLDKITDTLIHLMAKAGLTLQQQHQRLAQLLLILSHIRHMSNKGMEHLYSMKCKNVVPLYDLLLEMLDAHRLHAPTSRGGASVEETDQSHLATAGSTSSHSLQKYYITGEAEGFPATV

[2] = Clearance in Sprague-Dawley rat at 2 mg/kg, iv; type: ADME, organism-based; set-up: dose 2 mg/kg, route intravenous; conditions: in vivo
[3] = Volume of distribution at steady state in Sprague-Dawley rat at 2 mg/kg, iv; type: ADME, organism-based; set-up: dose 2 mg/kg, route intravenous; conditions: in vivo, read-out: Vdss
[4] = Half life in Sprague-Dawley rat at 2 mg/kg, iv; type: ADME, organism-based; set-up: dose 2 mg/kg, route intravenous; conditions: in vivo
[5] = Oral bioavailability in Sprague-Dawley rat at 2 mg/kg; type: ADME, organism-based; conditions: in vivo
[6] = molecular target: Voltage-gated inwardly rectifying potassium channel KCNH2 (Homo sapiens, UniProt Q12809)
Sequence of Voltage-gated inwardly rectifying potassium channel KCNH2 (Q12809 whole entry): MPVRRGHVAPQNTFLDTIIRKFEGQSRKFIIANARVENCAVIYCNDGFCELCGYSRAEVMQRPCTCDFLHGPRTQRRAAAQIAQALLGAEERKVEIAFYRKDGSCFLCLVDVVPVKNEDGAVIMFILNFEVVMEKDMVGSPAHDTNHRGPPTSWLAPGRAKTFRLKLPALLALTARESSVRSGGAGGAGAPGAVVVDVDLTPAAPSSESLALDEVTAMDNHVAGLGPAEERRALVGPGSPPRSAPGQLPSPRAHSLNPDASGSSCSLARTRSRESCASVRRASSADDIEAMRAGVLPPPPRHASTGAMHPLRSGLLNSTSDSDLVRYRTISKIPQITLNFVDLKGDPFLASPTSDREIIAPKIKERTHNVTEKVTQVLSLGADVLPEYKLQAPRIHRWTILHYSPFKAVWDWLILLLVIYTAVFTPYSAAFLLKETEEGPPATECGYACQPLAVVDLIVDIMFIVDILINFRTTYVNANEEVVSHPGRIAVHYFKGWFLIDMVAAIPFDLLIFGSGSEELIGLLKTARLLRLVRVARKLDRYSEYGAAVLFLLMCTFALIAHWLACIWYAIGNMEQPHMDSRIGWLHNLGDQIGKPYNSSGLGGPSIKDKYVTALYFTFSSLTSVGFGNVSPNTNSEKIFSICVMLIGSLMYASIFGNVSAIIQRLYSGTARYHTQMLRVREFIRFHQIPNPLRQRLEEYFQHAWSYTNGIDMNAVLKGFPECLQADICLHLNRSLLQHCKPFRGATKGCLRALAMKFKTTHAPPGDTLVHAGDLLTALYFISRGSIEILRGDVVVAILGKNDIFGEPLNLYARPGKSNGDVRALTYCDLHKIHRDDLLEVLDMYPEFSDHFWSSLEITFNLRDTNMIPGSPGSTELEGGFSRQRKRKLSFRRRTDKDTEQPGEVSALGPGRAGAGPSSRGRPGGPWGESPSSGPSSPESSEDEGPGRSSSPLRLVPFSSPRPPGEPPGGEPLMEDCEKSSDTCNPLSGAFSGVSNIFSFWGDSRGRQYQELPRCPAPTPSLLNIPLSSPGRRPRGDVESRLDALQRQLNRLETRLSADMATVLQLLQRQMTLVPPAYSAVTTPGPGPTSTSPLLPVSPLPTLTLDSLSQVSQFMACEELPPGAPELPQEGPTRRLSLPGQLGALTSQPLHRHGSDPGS

| Structure (SMILES) | pIC50 [1] | also measured |
| --- | --- | --- |
| N#Cc1ccc(N2N=C(c3ccc(C(=O)O)cc3)C[C@@H]2c2ccc(F)cc2)cc1 | 7.00 |  |
| N#Cc1ccc(N2N=C(c3ccc(C(=O)O)cc3)C[C@H]2c2ccc(F)cc2)cc1 | 5.08 |  |
| N#Cc1ccc(N2N=C(c3ccc(C(=O)O)c(F)c3)C[C@@H]2C2CCCC2)cc1Cl | 7.28 |  |
| COc1cc(C2=NN(c3ccc(C#N)c(Cl)c3)[C@@H](C3CCCC3)C2)ccc1C(=O)O |  | pIC50 (Estrogen receptor): < 5.00; clearance [2]: 24 mL/min/kg; Vd [3]: 3.9 L/kg; half-life [4]: 1.9 h; bioavailability [5]: 57% |
| COc1cc(C(=O)O)ccc1C1=NN(c2ccc(C#N)c(Cl)c2)[C@@H](C2CCCC2)C1 | 8.70 |  |
| N#Cc1ccc(N2N=C(c3ccc(C(=O)O)c(OCCCO)c3)C[C@@H]2C2CCCC2)cc1Cl | 7.89 |  |
| COCc1cc(N2N=C3c4ccc(C(=O)O)cc4CC[C@@H]3[C@@H]2C2CCCC2)ccc1C#N | 6.82 |  |
| N#Cc1ccc(N2N=C(c3ccc4[nH]c(=O)oc4c3)C[C@@H]2c2ccc(F)cc2)cc1 | 7.39 | pIC50 [6]: 7.54 |
| N#Cc1ccc(N2N=C(c3ccc4[nH]c(=O)oc4c3)C[C@H]2c2ccc(F)cc2)cc1 | 5.68 |  |
| N#Cc1ccc(N2N=C3c4ccc(C(=O)O)cc4CC[C@@H]3[C@@H]2C2CCCO2)cc1Cl (mixture of isomers) | 6.14 |  |
| N#Cc1ccc(N2N=C3c4ccc(C(=O)O)cc4CC[C@@H]3[C@@H]2C2C=CC=CO2)cc1Cl (mixture of isomers) | 6.90 |  |
| O=C(O)c1ccc(C2=NN(c3ccccc3)C(c3ccc(F)cc3)C2)cc1 (racemic) | 5.01 |  |
| O=C(O)c1ccc(C2=NN(c3ccc(C(=O)O)cc3)C(c3ccc(F)cc3)C2)cc1 (racemic) | < 5.00 |  |
| N#Cc1ccc(N2N=C(c3ccc(C(=O)O)cc3)CC2c2ccc(F)cc2)c(Cl)c1 (racemic) | 6.55 |  |
| N#Cc1ccc(N2N=C(c3ccc(C(=O)O)cc3)CC2c2ccncc2)cc1 (racemic) | < 5.00 |  |
| COc1cccc(C2CC(c3ccc(C(=O)O)cc3)=NN2c2ccc(C#N)cc2)c1 (racemic) | 5.80 |  |
| CC(C)C1CC(c2ccc(C(=O)O)cc2)=NN1c1ccc(C#N)c(Cl)c1 (racemic) | 6.42 |  |
| CC(C)CC1CC(c2ccc(C(=O)O)cc2)=NN1c1ccc(C#N)cc1 (racemic) | 5.60 |  |
| N#Cc1ccc(N2N=C(c3ccc(C(=O)O)cc3)CC2C2CCCC2)cc1Cl (racemic) | 7.27 |  |
| N#Cc1ccc(N2N=C3c4ccc(C(=O)O)cc4CC[C@H]3[C@H]2c2ccc(F)cc2)cc1Cl (racemic) | 6.65 |  |
| N#Cc1ccc(N2N=C3c4ccc(C(=O)O)cc4CC[C@@H]3[C@@H]2C2CCC2)cc1Cl (racemic) | 7.68 |  |
| N#Cc1ccc(N2N=C3c4ccc(C(=O)O)cc4CC[C@@H]3[C@@H]2C2CC=CC2)cc1Cl (racemic) | 7.82 |  |
| N#Cc1ccc(N2N=C3c4ccc(C(=O)O)cc4CC[C@@H]3[C@@H]2C2CCCC2)cc1O (racemic) | < 6.30 |  |
| Cc1cc(N2N=C3c4ccc(C(=O)O)cc4CO[C@H]3[C@H]2C2CCCC2)ccc1C#N (racemic) | 7.41 |  |
| CN(C)CCN(C)C(=O)c1ccc(C2=NN(c3ccc(C#N)cc3)C(c3ccc(F)cc3)C2)cc1 (racemic) | 7.08 | pIC50 [6]: 6.77 |
| N#Cc1ccc(N2N=C(c3ccc(C(=O)O)cc3)CC2c2ccc(F)cc2)cc1 (racemic) | 6.61 | pIC50 [6]: < 4.52 |
| COC(=O)[C@@H]1CC2=CC(=O)CC[C@]2(C)[C@@]23O[C@@H]2C[C@@]2(C)[C@@H](CC[C@@]24CCC(=O)O4)[C@H]13 [EPLERENONE] |  | pIC50 (Estrogen receptor): < 5.00 |

Now from value to compound, other results behind:

| pIC50 [1] | Structure (SMILES) | also measured |
| --- | --- | --- |
| 7.59 | N#Cc1ccc(N2N=C(c3ccc(C(=O)O)c(Cl)c3)C[C@@H]2C2CCCC2)cc1Cl |  |
| 7.10 | N#Cc1ccc(N2N=C(c3ccc(C(=O)O)c(OC(F)(F)F)c3)C[C@@H]2C2CCCC2)cc1Cl |  |
| 6.87 | N#Cc1ccc(N2N=C(c3ccc(CC(=O)O)cc3)C[C@@H]2C2CCCC2)cc1Cl |  |
| 7.49 | Cc1nc(C)c(C2=NN(c3ccc(C#N)cc3)[C@@H](c3ccc(F)cc3)C2)s1 |  |
| 6.74 | CCOC(=O)c1ccc(N2N=C(c3ccc(C(=O)O)cc3)CC2c2ccc(F)cc2)cc1 (racemic) |  |
| 5.84 | COc1ccc(N2N=C(c3ccc(C(=O)O)cc3)CC2c2ccc(F)cc2)cc1 (racemic) |  |
| 6.61 | N#Cc1ccc(N2N=C(c3ccc(C(=O)O)cc3)CC2c2ccc(F)cc2)cc1F (racemic) |  |
| 6.27 | N#Cc1ccc(N2N=C(c3ccc(C(=O)O)cc3)CC2c2ccc(F)cc2)c(F)c1 (racemic) |  |
| 7.25 | N#Cc1ccc(N2N=C(c3ccc(C(=O)O)cc3)CC2c2ccc(F)cc2)cc1Cl (racemic) |  |
| 7.25 | Cc1cc(N2N=C(c3ccc(C(=O)O)cc3)CC2c2ccc(F)cc2)ccc1C#N (racemic) |  |
| 6.90 | N#Cc1ccc(N2N=C(c3ccc(C(=O)O)cc3)CC2c2ccc(F)cc2)cc1C(F)(F)F (racemic) |  |
| < 6.00 | N#Cc1ccc(N2N=C(c3ccc(C(=O)O)cc3)CC2c2ccc(F)cc2)cc1C#N (racemic) |  |
| < 5.00 | N#Cc1ccc(N2N=C(c3ccc(C(=O)O)cc3)CC2c2cccnc2)cc1 (racemic) |  |
| < 5.00 | N#Cc1ccc(N2N=C(c3ccc(C(=O)O)cc3)CC2c2ccccn2)cc1 (racemic) |  |
| 6.39 | N#Cc1ccc(N2N=C(c3ccc(C(=O)O)cc3)CC2c2ccco2)cc1 (racemic) |  |
| 6.12 | N#Cc1ccc(N2N=C(c3ccc(C(=O)O)cc3)CC2c2cccs2)cc1 (racemic) |  |
| 5.44 | N#Cc1ccc(N2N=C(c3ccc(C(=O)O)cc3)CC2Cc2ccccc2)cc1 (racemic) |  |

| pIC50 [1] | Structure (SMILES) | also measured |
| --- | --- | --- |
| 6.36 | N#Cc1ccc(N2N=C(c3ccc(C(=O)O)cc3)CC2c2cccc(F)c2)cc1 (racemic) |  |
| 5.89 | N#Cc1ccc(N2N=C(c3ccc(C(=O)O)cc3)CC2C2CCCCC2)cc1 (racemic) |  |
| 6.82 | N#Cc1ccc(N2N=C(c3ccc(C(=O)O)cc3)CC2C2CCCC2)cc1 (racemic) |  |
| 5.36 | N#Cc1ccc(N2N=C3c4ccc(C(=O)O)cc4C[C@@H]3[C@@H]2c2ccc(F)cc2)cc1 (racemic) |  |
| 6.26 | N#Cc1ccc(N2N=C3c4ccc(C(=O)O)cc4CC[C@@H]3[C@@H]2c2ccc(F)cc2)cc1 (racemic) |  |
| 8.40 | Cc1cc(N2N=C3c4ccc(C(=O)O)cc4CC[C@@H]3[C@@H]2C2CCCC2)ccc1C#N (racemic) |  |
| 8.15 | COc1cc(N2N=C3c4ccc(C(=O)O)cc4CC[C@@H]3[C@@H]2C2CCCC2)ccc1C#N (racemic) |  |
| 6.31 | N#Cc1ccc(N2N=C3c4ccc(C(=O)O)cc4CC[C@@H]3[C@@H]2C2CCCC2)cc1OCc1ccccc1 (racemic) |  |
| 6.07 | N#Cc1ccc(N2N=C3c4ccc(C(=O)O)cc4CO[C@@H]3[C@@H]2c2ccc(F)cc2)cc1Cl (racemic) |  |
| 6.34 | O=[N+]([O-])c1ccc(N2N=C(c3ccc(O)cc3)CC2c2ccc(F)cc2)cc1 (racemic) |  |
| 7.24 | N#Cc1ccc(N2N=C(c3ccc4[nH]c(=O)oc4c3)CC2c2ccc(F)cc2)cc1 (racemic) |  |
| < 5.00 | N#Cc1ccc(N2N=C(c3ccc4[nH]c(=O)oc4c3)CC2c2ccc(C(=O)O)cc2)cc1 (racemic) | pIC50 [6]: < 4.52 |
| 6.11 | O=C(O)c1ccc(N2N=C(c3ccc4[nH]c(=O)oc4c3)CC2c2ccc(F)cc2)cc1 (racemic) | pIC50 [6]: < 4.52 |
| 7.16 | COc1cc(C2=NN(c3ccc(C#N)c(Cl)c3)[C@@H](C3CCCC3)C2C)ccc1C(=O)O (single isomer, unassigned) |  |
| 7.19 | N#Cc1ccc(N2N=C3c4ccc(C(=O)O)cc4CO[C@@H]3[C@@H]2C2CCCC2)cc1Cl (stereo in doubt) |  |
| 6.84 | N#Cc1ccc(N2N=C3c4ccc(C(=O)O)cc4CO[C@H]3[C@H]2C2CCCC2)cc1Cl (stereo in doubt) |  |
